Experimental data published in patent publication US8980848B2, “Flavonoid dimers and their use” (The Hong Kong Polytechnic University, priority 2010, dated 2015).
Like-named read-outs stand apart in the source and are kept apart here.

Legend:
[1] = Tumor cell line cytotoxicity of flavonoid dimers, LCC6MDR; type: cell-based, human; conditions: human, LCC6MDR cells, IC50 of compound alone
In short: (§1)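 LCC6, LCC6MDR and L929 cells seeded at 1×10^4 cells/well and exposed to graded doses of flavonoid dimers. Incubation 72 hrs at 37° C., 5% CO2. Read-out: % survivors.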

[2] = Tumor cell line cytotoxicity of flavonoid dimers, LCC6; type: cell-based, human; conditions: human, LCC6 cells, IC50 of compound alone
In short: as §1

[3] = Cytotoxicity of flavonoid dimers, L929 mouse fibroblast; type: cell-based; conditions: mouse, L929 fibroblast cells, IC50 of compound alone, 72 hrs, mouse fibroblast
In short: as §1

[4] = Cytotoxicity over LCC6, LCC6MDR and L929 cell lines; type: cell-based, human, mouse; conditions: human, cancer lines LCC6, LCC6MDR and/or L929
Experimental: (b) Tumor Cell Line Cytotoxicity. The tumor cytotoxicity assays of flavonoid dimers were performed against LCC6, LCC6MDR and L929 cell lines. The cells were grown in supplemented DMEM media in an atmosphere of 95% air and 5% CO2 at 37° C. In brief, LCC6, LCC6MDR and L929 cells were seeded into 96-well flat bottom microtiter plate at 1×10^4 cells per well in a final volume of 100 μL media, respectively. A graded dose of flavonoid dimers was added into wells. The plate was incubated at 37° C. for 72 hrs at the atmosphere 5% CO2 in the air. The % of survivors was determined.

Pgp (LCC6MDR cells) = Pgp (LCC6MDR cells) (Homo sapiens, UniProt P08183); assay: Cell proliferation assay: Pgp-modulating activity, reversal of anticancer drug resistance in LCC6MDR cells; conditions: for EC50: EC50 of compounds for reversing anticancer drug resistance (nM); for EC50 / RF (Relative Fold), cpd at 0.5 μM / RF (Relative Fold), cpd at 1 μM: LCC6MDR; for Therapeutic index: IC50 of compounds for L929/EC50 of compounds for lowering paclitaxel drug resistance; for RF (Relative Fold), cpd at 0.5 μM: RF = (IC50 without modulator)/(IC50 with 0.5 μM modulator); for RF (Relative Fold), cpd at 0.5 μM / RF (Relative Fold), cpd at 1 μM: paclitaxel; for RF (Relative Fold), cpd at 1 μM: RF = (IC50 without modulator)/(IC50 with 1.0 μM modulator)
Experimental: Cell Proliferation Assay. 6,000 cells of LCC6 or LCC6MDR and anticancer drugs (paclitaxel, vinblastine, vincristine, doxorubicin and mitoxantrone) were mixed with or without modulators to a final volume of 200 μL in each well of 96-well plates. […] The plates were then incubated for 5 days at 37° C. […] IC50 values were calculated from the dose-response curves of MTS assays (Prism 4.0).

PEM cells = assay: Cytotoxicity, primary mouse peritoneal elicited macrophage (PEM); type: cell-based
Experimental: (§2) (a) Mouse Macrophage Raw 264.7 and Primary Mouse PEM Cells. The cytotoxicity assay of reference antileishmanial compounds and the compounds of this invention was performed against mouse macrophage cell line, Raw 264.7 and primary mouse PEM cells in order to calculate the therapeutic index (IC50 value for cytotoxicity of the compounds divided by IC50 value for antileishmanial activity of the compounds). The cells were grown in supplemented DMEM media in an atmosphere of 95% air with 5% CO2 at 37° C. In brief, Raw264.7 cells and PEM cells were seeded into 96-well flat bottom microtiter plate at 1×10^4cells and 2×10^4 cells per well in a final volume of 100 μL media, respectively. A graded dose of flavonoid dimers or antileishmanials was added into wells. The plate was incubated at 37° C. for 72 hrs at the atmosphere 5% CO2 in the air. The % of survivors was determined.

Ld39 amastigotes = assay: In vitro anti-amastigote activity, Ld39 amastigotes in mouse PEM
Experimental: Peritoneal elicited macrophages (PEM) from mouse were obtained as previously described. A round cover slip (12 mm in diameter) was placed into each well of 24-well culture plate. Mouse macrophages were resuspended in supplemented DMEM media containing 10% heat inactivated fetal bovine serum (v/v), 100 U/mL penicillin and 100 μg/mL streptomycin and seeded into each well at a cell density of 1×10^5 cells per 500 μL. Macrophages were allowed to attach overnight and the non-adherent cells were removed by gentle washing twice with unsupplemented DMEM media. […] Non-internalized promastigotes were removed by washing with unsupplemented DMEM media for two times. Infected macrophages were further incubated in 500 μL supplemented DMEM media in the presence or absence of flavonoid dimers or known antileishmanials for 72 hrs at 37° C. After incubation, the cover slips were stained with Giemsa and the amastigotes inside each macrophage (100 macrophages per treatment) were counted under microscope. The percentage of macrophages infected and number of amastigotes per 100 macrophages was enumerated.
The % of infected macrophage and the number of amastigotes per 100 macrophages were counted by staining with Giemsa.

[5] = test system: LdAG83 promastigotes (wild type); assay: In vitro anti-promastigote activity, LdAG83; type: cell-based, Leishmania donovani; conditions: read-out: Anti-promastigotes activity (IC50, μM) LdAG83
Experimental: (§3) Cell Lines and Cell Culture. Promastigotes of Leishmania donovani (wild type LdAG83, pentamidine-resistant LdAG83-PentR50, and SSG-resistant Ld39) and Leishmania major [MHOM/IL/67/JERICHO II (Lm50122), from ATCC] were used in this study.
(§4) In Vitro Anti-Promastigote Activity. The viability of promastigotes was determined by the Cell Titer 96° Aqueous Assay (Promega) that employs a tetrazolium compound (MTS, 2-(4,5-Dimethylthiazol-2-yl-)-5-[3-(carboxymethoxy)phenyl]-2-(4-sulfophenyl)-2H-tetrazolium) and electron coupling reagent, phenazine methosulfate (PMS).^7 Promastigotes were seeded into 96-well flat bottom microtiter plate at 1×10^5 cells per well in a final volume of 100 μL medium and incubated with a series concentration of synthetic flavonoid dimers or known antileishmanials. The parasites were incubated at 27° C. for 72 hrs. Fresh solution of 2 mg/mL MTS and 0.92 mg/mL PMS were prepared in a ratio of 20:1 (MTS:PMS). After 72 hrs incubation, 10 μL of MTS:PMS mixture was added into each well of microtiter plate. The plate was then incubated at 27° C. for 4 hrs for color development. After 4 hrs incubation, the OD values were determined at 490 nm using automatic microtiter plate reader (Bio-Rad).

[6] = test system: Ld39 promastigotes (SSG-resistant); assay: In vitro anti-promastigote activity, Ld39; type: cell-based, Leishmania donovani; conditions: read-out: Anti-promastigotes activity (IC50, μM) Ld39
Experimental: as §3, §4

[7] = test system: LdAG83PentR50 promastigotes (pentamidine-resistant); assay: microbe, parasite or virus in culture; type: cell-based, Leishmania donovani; conditions: 3 days at 27° C., MTS; read-out: Anti-promastigotes activity (IC50, μM) LdAG83PentR50
Experimental: as §3
No pentamidine or sodium stibogluconate was added to the L. donovani wild type (LdAG83) and L. major wild type (Lm50122). The mouse macrophage cell line, Raw264.7, was used for the determination of the relative toxicity of the compounds of the invention. […] They were maintained at 37° C. in a humidified atmosphere with 5% CO2. The cells were split constantly after a confluent monolayer has been formed. To split cells, the plate was washed briefly with PBS, treated with 0.05% trypsin-EDTA and harvested by centrifugation.
as §4

Lm50122 promastigotes = assay: In vitro anti-promastigote activity, Lm50122; type: cell-based, Leishmania major; conditions: read-out: Anti-promastigotes activity (IC50, μM) Lm50122
Experimental: as §3, §4

Raw264.7 cells = assay: Cytotoxicity, mouse macrophage Raw264.7; type: cell-based
Experimental: as §2

[8] = mouse, LCC6MDR and L929 cell lines
[9] = Mus musculus, Macrophage, Table 7, cytotoxicity
[10] = cytotoxicity, primary mouse macrophage, 72 hrs
[11] = Leishmania donovani, in Mus musculus, 72 h, read-out: Ld39 (IC50, mM)

Chain of Pgp (LCC6MDR cells) (P08183 whole entry): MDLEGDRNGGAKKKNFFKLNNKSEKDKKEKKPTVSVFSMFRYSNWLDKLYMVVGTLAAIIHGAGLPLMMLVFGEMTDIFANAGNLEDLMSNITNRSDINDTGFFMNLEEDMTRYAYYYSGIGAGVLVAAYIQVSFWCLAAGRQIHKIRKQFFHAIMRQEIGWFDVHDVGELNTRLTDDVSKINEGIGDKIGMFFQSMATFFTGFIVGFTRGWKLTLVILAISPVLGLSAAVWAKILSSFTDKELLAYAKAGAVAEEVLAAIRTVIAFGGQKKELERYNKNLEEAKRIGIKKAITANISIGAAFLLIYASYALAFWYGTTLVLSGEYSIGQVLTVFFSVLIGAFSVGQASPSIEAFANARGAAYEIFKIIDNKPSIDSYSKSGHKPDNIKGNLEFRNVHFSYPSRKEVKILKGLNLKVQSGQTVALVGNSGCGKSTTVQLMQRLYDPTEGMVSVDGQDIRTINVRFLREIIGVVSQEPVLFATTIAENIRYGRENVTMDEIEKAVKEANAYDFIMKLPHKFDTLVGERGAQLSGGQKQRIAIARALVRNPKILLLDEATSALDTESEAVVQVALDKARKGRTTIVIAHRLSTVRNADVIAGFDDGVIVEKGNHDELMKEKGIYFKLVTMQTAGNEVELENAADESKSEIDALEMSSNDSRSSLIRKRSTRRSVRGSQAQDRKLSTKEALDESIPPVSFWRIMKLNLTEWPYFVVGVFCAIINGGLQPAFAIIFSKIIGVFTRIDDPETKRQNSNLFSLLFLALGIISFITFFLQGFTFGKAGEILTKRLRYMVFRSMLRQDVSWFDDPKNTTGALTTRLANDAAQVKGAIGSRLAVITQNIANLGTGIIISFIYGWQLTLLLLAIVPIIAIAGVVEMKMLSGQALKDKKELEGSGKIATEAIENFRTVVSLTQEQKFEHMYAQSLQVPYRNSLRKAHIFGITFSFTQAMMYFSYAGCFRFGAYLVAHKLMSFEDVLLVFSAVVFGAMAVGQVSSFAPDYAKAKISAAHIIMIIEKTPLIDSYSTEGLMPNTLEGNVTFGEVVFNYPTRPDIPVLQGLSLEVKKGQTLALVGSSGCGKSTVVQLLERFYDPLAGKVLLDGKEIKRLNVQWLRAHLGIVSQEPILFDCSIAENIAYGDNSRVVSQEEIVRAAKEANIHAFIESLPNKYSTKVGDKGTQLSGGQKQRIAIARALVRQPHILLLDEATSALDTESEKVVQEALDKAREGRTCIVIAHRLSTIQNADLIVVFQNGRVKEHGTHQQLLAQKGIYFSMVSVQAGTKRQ

Structure (SMILES)	IC50 at 72 h [1] [µM]	IC50 at 72 h [2] [µM]	IC50 at 72 h [3] [µM]	IC50 at 72 h [4, 8] [µM]	melting point [°C]	EC50 (Pgp (LCC6MDR cells); Paclitaxel) [nM]	Therapeutic index (Pgp (LCC6MDR cells))	RF (Relative Fold), cpd at 0.5 μM (Pgp (LCC6MDR cells))	other results
O=c1cc(-c2ccc(OCCOCCN(CCOCCOc3ccc(-c4cc(=O)c5ccccc5o4)cc3)Cc3cccc(F)c3)cc2)oc2ccccc12 [Compound 37, 1,13-Bis[4′-(4H-chromen-4-on-2-yl)phenyl]-7-(3-fluorobenzyl)-1,4,10,13-tetraoxa-7-azamidecane]	> 100	> 100	> 87	> 100	91 to 93	258 ± 103	>337.2	–	–
O=c1c(O)c(-c2ccc(O)c(O)c2)oc2cc(O)cc(O)c12 [Quercetin, quercetin]	–	–	–	–	–	–	–	–	IC50 (PEM cells; [9]): > 100 µM; IC50 (PEM cells; [10]): > 100 µM; IC50 (Ld39 amastigotes; [11]): 6 ± 1.1 µM
O=C1c2ccccc2C(=O)N1CCN(CCOCCOc1ccc(-c2cc(=O)c3ccccc3o2)cc1)CCOCCOc1ccc(-c2cc(=O)c3ccccc3o2)cc1 [Compound 23c, 1,13-Bis[4′-(4H-chromen-4-on-2-yl)phenyl]-7-[2-(1,3-dioxo-1,3-dihydro-2H-isoindol-2-yl)ethyl]-1,4,10,13-tetraoxa-7-azamidecane]	4.9 ± 0.1	8.6 ± 3.4	17 ± 4.3	4.9 to 8.6	–	–	–	(9.6)	–
O=c1cc(-c2ccc(OCCOCCN(CCOCCOc3ccc(-c4cc(=O)c5ccccc5o4)cc3)Cc3ccccc3F)cc2)oc2ccccc12 [Compound 36, 1,13-Bis[4′-(4H-chromen-4-on-2-yl)phenyl]-7-(2-fluorobenzyl)-1,4,10,13-tetraoxa-7-azamidecane]	> 100	> 100	> 100	> 100	82 to 84	179 ± 44	>558.7	–	–
C[C@@H]1[C@H](O)[C@@H](C)/C=C/C=C/C=C/C=C/C=C/C=C/C=C/[C@H](O[C@@H]2O[C@H](C)[C@@H](O)[C@H](N)[C@@H]2O)C[C@@H]2O[C@](O)(C[C@@H](O)C[C@@H](O)[C@H](O)CC[C@@H](O)C[C@@H](O)CC(=O)O[C@H]1C)C[C@H](O)[C@H]2C(=O)O [Amphotericin B, amphotericin B, reference compound]	–	–	–	–	–	–	–	–	IC50 ([5]; 3 days at 27° C., MTS): 0.09 ± 0.02 µM; IC50 ([6]; 3 days at 27° C., MTS): 0.095 ± 0.02 µM; IC50 [7]: 0.051 µM; IC50 (Lm50122 promastigotes; 3 days at 27° C., MTS): 0.34 ± 0.06 µM; IC50 (Raw264.7 cells; 72 hrs): 12 µM; IC50 (PEM cells; [10]): 7.4 µM; IC50 (Ld39 amastigotes; read-out: IC50 against Ld39 amastigotes): 0.062 µM
O=c1cc(-c2ccc(O)c(O)c2)oc2cc(O)cc(O)c12 [Luteolin, luteolin]	–	–	–	–	–	–	–	–	IC50 (PEM cells; [9]): 77.7 ± 7.7 µM; IC50 (PEM cells; [10]): 77.7 ± 7.7 µM; IC50 (Ld39 amastigotes; [11]): 7.7 ± 3.6 µM
O=c1cc(-c2ccc(OCCOCCN(CCOCCOc3ccc(-c4cc(=O)c5ccccc5o4)cc3)Cc3cc(F)c(F)c(F)c3)cc2)oc2ccccc12 [Compound 39, 1,13-Bis[4′-(4H-chromen-4-on-2-yl)phenyl]-7-(3,4,5-trifluorobenzyl)-1,4,10,13-tetraoxa-7-azamidecane]	> 100	> 75	> 100	> 100	–	–	–	–	–
O=c1cc(-c2ccc(OCCOCCN(CCOCCOc3ccc(-c4cc(=O)c5ccccc5o4)cc3)Cc3ccc(-c4ccccc4)cc3)cc2)oc2ccccc12 [Compound 57, 1,13-Bis[4′-(4H-chromen-4-on-2-yl)phenyl]-7-(4-phenylbenzyl)-1,4,10,13-tetraoxa-7-azamidecane]	> 62	> 99	> 69	–	106 to 107	72 ± 21	>958.3	(102.1)	EC50 (Pgp (LCC6MDR cells); Daunorubicin): 76 ± 14 nM; EC50 (Pgp (LCC6MDR cells); Doxorubicin): 94 ± 1 nM; EC50 (Pgp (LCC6MDR cells); Mitoxantrone): 65 ± 19 nM; EC50 (Pgp (LCC6MDR cells); Vinblasinte, vinblastine): 38 ± 10 nM; EC50 (Pgp (LCC6MDR cells); Vincristine): 83 ± 12 nM; RF (Relative Fold), cpd at 1 μM (Pgp (LCC6MDR cells)): (117.8)
COC(=O)c1ccc(CN(CCOCCOc2ccc(-c3cc(=O)c4ccccc4o3)cc2)CCOCCOc2ccc(-c3cc(=O)c4ccccc4o3)cc2)cc1 [Compound 20, 1,13-Bis[4′-(4H-chromen-4-on-2-yl)phenyl]-N-(4-methoxycarbonylbenzyl)-1,4,10,13-tetraoxa-7-azamidecane]	64.8 ± 14.1	33.3 ± 10.8	11.4 ± 4.4	–	–	–	–	(2.1)	IC50 ([5]; Leishmania donovani, 72 h): > 100 µM; IC50 ([6]; Leishmania donovani, 72 h): > 100 µM; IC50 (Lm50122 promastigotes; Leishmania major, 72 h): > 100 µM; IC50 (Raw264.7 cells; Mus musculus, RAW264.7, 72 h): 45.7 ± 19.1 µM
O=c1cc(-c2ccc(OCCOCCN(CCOCCOc3ccc(-c4cc(=O)c5ccccc5o4)cc3)Cc3ccc(F)cc3)cc2)oc2ccccc12 [Compound 34, 1,13-Bis[4′-(4H-chromen-4-on-2-yl)phenyl]-7-(4-fluorobenzyl)-1,4,10,13-tetraoxa-7-azamidecane]	> 83	> 100	19.7	–	119 to 122	255 ± 5	77.3	(31.2)	–
O=C(c1ccccc1)c1ccc(CN(CCOCCOc2ccc(-c3cc(=O)c4ccccc4o3)cc2)CCOCCOc2ccc(-c3cc(=O)c4ccccc4o3)cc2)cc1 [Compound 61, 1,13-Bis[4′-(4H-chromen-4-on-2-yl)phenyl]-7-(4-benzoylbenzyl)-1,4,10,13-tetraoxa-7-azamidecane]	> 100	> 91	> 100	–	71 to 72	–	–	(1.9)	RF (Relative Fold), cpd at 1 μM (Pgp (LCC6MDR cells)): (30.0)
COc1cccc2oc(-c3ccc(OCCOCCN(CCOCCOc4ccc(-c5cc(=O)c6c(OC)cccc6o5)cc4)C(=O)OC(C)(C)C)cc3)cc(=O)c12 [Compound 16d, 1,13-Bis[4′-((5-methoxy)-4H-chromen-4-on-2-yl)phenyl]-7-(tert-butyloxycarbonyl)-1,4,10,13-tetraoxa-7-azamidecane]	5.4 ± 0.5	4.6 ± 0.2	–	–	–	–	–	(14.9)	IC50 at 72 h [4]: < 8 µM
